The record followed here is US11311520B2, “Substituted dihydroimidazopyridinediones as MKNK1 and MKNK2 inhibitors” (Bayer Pharma Aktiengesellschaft, priority 2017, dated 2022).

The test deals with human full-length MKNK1 (Homo sapiens (Human), UniProt Q9BUB5, T344D). The experiment in a line: MKNK1 kinase high ATP assay (TR-FRET). It counts as biochemical. Conditions: 2 mM ATP, 15 min preincubation with enzyme, GST-MKNK1 (T344D). An outline of the steps: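 GST-tagged full-length human MKNK1 (1-424, T344D, baculovirus-expressed) preincubated 15 min at 22 °C with compound, then reacted 30 min at 22 °C with 2 mM ATP and 0.06 μM biotinylated peptide (final) in HEPES pH 7.5. Phospho-substrate by TR-FRET (665/622 nm ratio), normalised to no-inhibitor and no-enzyme controls.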
Sequence of human full-length MKNK1 (Q9BUB5 other isoform, or with tags, fused parts or gaps T344D): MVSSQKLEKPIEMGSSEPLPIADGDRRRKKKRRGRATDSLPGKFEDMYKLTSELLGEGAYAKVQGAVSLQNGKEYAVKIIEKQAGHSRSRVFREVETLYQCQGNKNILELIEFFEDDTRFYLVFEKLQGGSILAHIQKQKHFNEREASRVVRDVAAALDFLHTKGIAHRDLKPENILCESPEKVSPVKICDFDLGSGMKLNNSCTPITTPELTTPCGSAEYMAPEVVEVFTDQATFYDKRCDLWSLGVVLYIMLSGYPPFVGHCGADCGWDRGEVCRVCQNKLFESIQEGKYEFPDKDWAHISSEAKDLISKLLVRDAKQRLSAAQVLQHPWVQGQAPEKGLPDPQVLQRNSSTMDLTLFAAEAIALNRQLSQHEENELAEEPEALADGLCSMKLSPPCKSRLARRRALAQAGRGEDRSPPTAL

Take `Cc1cc(Nc2ncnc3scnc23)c(=O)n2c1C(=O)NC21CSC1` [Example 173, 8-methyl-6-[([1,3]thiazolo[5,4-d]pyrimidin-7-yl)amino]-2H-spiro[imidazo[1,5-a]pyridine-3,3′-thietane]-1,5-dione]: the IC50 came to 5.8 nM.

As for `Cc1cc(Nc2ncnc3sc(C(=O)N4CC(N)C4)cc23)c(=O)n2c1C(=O)NC21CCCCC1` [Example 28, 6′-({6-[(3-Aminoazetidin-1-yl)carbonyl]thieno[2,3-d]pyrimidin-4-yl}amino)-8′-methyl-2′H-spiro[cyclohexane-1,3′-imidazo[1,5-a]pyridine]-1′,5′-dione], half-maximal inhibition (IC50) required 0.6 nM.

`Cc1cc(Nc2ncnc3ccc(F)cc23)c(=O)n2c1C(=O)NC21CSC1` [Example 176, 6-[(6-fluoroquinazolin-4-yl)amino]-8-methyl-2H-spiro[imidazo[1,5-a]pyridine-3,3′-thietane]-1,5-dione] returned an IC50 of 19 nM.

Take `Cc1cc(Nc2ncnc3ccccc23)c(=O)n2c1C(=O)NC21CCCCC1` [Example 8, 8′-Methyl-6′-(quinazolin-4-ylamino)-2′H-spiro[cyclohexane-1,3′-imidazo[1,5-a]pyridine]-1′,5′-dione]: the midpoint of inhibition, the IC50, lay at 28.3 nM.

As to `Cc1cc(Nc2ncnc3sc(C(N)=O)cc23)c(=O)n2c1C(=O)NC21CCCC1` [Example 102, 4-[(8′-Methyl-1′,5′-dioxo-1′,5′-dihydro-2′H-spiro[cyclopentane-1,3′-imidazo[1,5-a]pyridin]-6′-yl)amino]thieno[2,3-d]pyrimidine-6-carboxamide], the IC50 was 5.7 nM.

Turning to `Cc1cc(Nc2ncnc3sc(C(=O)N4CCC(N(C)C)CC4)c(C)c23)c(=O)n2c1C(=O)NC21CCCCC1` [Example 20, 6′-[(6-{[4-(Dimethylamino)piperidin-1-yl]carbonyl}-5-methylthieno[2,3-d]pyrimidin-4-yl)amino]-8′-methyl-2′H-spiro[cyclohexane-1,3′-imidazo[1,5-a]pyridine]-1′,5′-dione], it took 35.2 nM to reach half-maximal inhibition (IC50).

For `Cc1cc(Nc2ncnc3c2ncn3CC(=O)N(C)CCN(C)C)c(=O)n2c1C(=O)NC21CCCCC1` [Example 50], the IC50 worked out at 950 nM.

`Cc1cc(Nc2ncnc3ccccc23)c(=O)n2c1C(=O)NC21CS(=O)(=O)C1` [Example 182, 8-methyl-6-(quinazolin-4-ylamino)-2H-spiro[imidazo[1,5-a]pyridine-3,3′-thietane]-1,5-dione 1′,1′-dioxide] returned an IC50 of 261 nM.

`Cc1cc(Nc2ncnc3[nH]ccc23)c(=O)n2c1C(=O)NC21CCC1` [Example 148, 8′-Methyl-6′-(7H-pyrrolo[2,3-d]pyrimidin-4-ylamino)-2′H-spiro[cyclobutane-1,3′-imidazo[1,5-a]pyridine]-1′,5′-dione] registered an IC50 of 0.4 nM. Compared with the last compound, the IC50 is about 650-fold lower.

`Cc1cc(Nc2ncnc3sc(C(=O)N(C)CCN(C)C)cc23)c(=O)n2c1C(=O)NC21CCC(F)(F)CC1` [Example 82, 4-[(4,4-Difluoro-8′-methyl-1′,5′-dioxo-1′,5′-dihydro-2′H-spiro[cyclohexane-1,3′-imidazo[1,5-a]pyridin]-6′-yl)amino]-N-[2-(dimethylamino)ethyl]-N-methylthieno[2,3-d]pyrimidine-6-carboxamide] displayed an IC50 of 18.3 nM.

The compound `Cc1cc(Nc2ncnc(NC(=O)C3CC3)n2)c(=O)n2c1C(=O)NC21CCCC1` [Example 53, N-{4-[(8′-Methyl-1′,5′-dioxo-1′,5′-dihydro-2′H-spiro[cyclopentane-1,3′-imidazo[1,5-a]pyridin]-6′-yl)amino]-1,3,5-triazin-2-yl}cyclopropanecarboxamide] showed an IC50 of 2.4 nM. Compared with the last compound, the IC50 is about 7.6-fold lower.

Regarding `Cc1cc(Nc2ncnc3c2ncn3CC(=O)N(C)C)c(=O)n2c1C(=O)NC21CCCCC1` [Example 49, N,N-Dimethyl-2-{6-[(8′-methyl-1′,5′-dioxo-1′,5′-dihydro-2′H-spiro[cyclohexane-1,3′-imidazo[1,5-a]pyridin]-6′-yl)amino]-9H-purin-9-yl}acetamide], inhibition was half-maximal at 490 nM (IC50).

As to `Cc1cc(Nc2ncnc3cccc(Cl)c23)c(=O)n2c1C(=O)NC21CCCCC1` [Example 109, 6′-[(5-Chloroquinazolin-4-yl)amino]-8′-methyl-2′H-spiro[cyclohexane-1,3′-imidazo[1,5-a]pyridine]-1′,5′-dione], half-maximal inhibition (IC50) was put at 10.2 nM.

With `Cc1cc(Nc2ncnc3cccc(C)c23)c(=O)n2c1C(=O)NC21CS(=O)(=O)C1` [Example 179, 8-methyl-6-[(5-methylquinazolin-4-yl)amino]-2H-spiro[imidazo[1,5-a]pyridine-3,3′-thietane]-1,5-dione 1′,1′-dioxide], the IC50 amounted to 124 nM.

As for `Cc1cc(Nc2ncnc3ccc(Cl)cc23)c(=O)n2c1C(=O)NC21CSC1` [Example 175, 6-[(6-chloroquinazolin-4-yl)amino]-8-methyl-2H-spiro[imidazo[1,5-a]pyridine-3,3′-thietane]-1,5-dione], the IC50 came out at 14.4 nM.

With `Cc1cc(Nc2ncnc3cccc(C)c23)c(=O)n2c1C(=O)NC21CCCC1` [Example 183, 8′-methyl-6′-[(5-methylquinazolin-4-yl)amino]-2′H-spiro[cyclopentane-1,3′-imidazo[1,5-a]pyridine]-1′,5′-dione], the midpoint of inhibition, the IC50, lay at 13 nM.

On to `Cc1cc(Nc2ncnc3c2CN(C(=O)[C@@H]2CCC(=O)N2)C3)c(=O)n2c1C(=O)NC21CCCCC1` [Example 77, 8′-Methyl-6′-[(6-{[(2S)-5-oxopyrrolidin-2-yl]carbonyl}-6,7-dihydro-5H-pyrrolo[3,4-cl]pyrimidin-4-yl)amino]-2′H-spiro[cyclohexane-1,3′-imidazo[1,5-a]pyridine]-1′,5′-dione], for which the IC50 came to 55.9 nM.

Compound `Cc1cc(Nc2ncnc3sccc23)c(=O)n2c1C(=O)N[C@]21CC[C@@](O)(C(F)(F)C(F)(F)F)CC1` [Example 193, (cis)-4-hydroxy-8′-methyl-4-(pentafluoroethyl)-6′-[(thieno[2,3-d]pyrimidin-4-yl)amino]-2′H-spiro[cyclohexane-1,3′-imidazo[1,5-a]pyridine]-1′,5′-dione] returned an IC50 of 29.8 nM.

On to `Cc1cc(Nc2ncnc(N)n2)c(=O)n2c1C(=O)NC21CCCC1` [Example 54, 6′-[(4-Amino-1,3,5-triazin-2-yl)amino]-8′-methyl-2′H-spiro[cyclopentane-1,3′-imidazo[1,5-a]pyridine]-1′,5′-dione], for which the IC50 stood at 5.7 nM.

In the case of `Cc1cc(Nc2ncnc3ccc(Cl)cc23)c(=O)n2c1C(=O)NC21CS(=O)(=O)C1` [Example 180, 6-[(6-chloroquinazolin-4-yl)amino]-8-methyl-2H-spiro[imidazo[1,5-a]pyridine-3,3′-thietane]-1,5-dione 1′,1′-dioxide], the IC50 worked out at 104 nM.

`Cc1cc(Nc2ncnc(N)n2)c(=O)n2c1C(=O)NC21CCC(O)(C(F)(F)F)CC1` (stereo not shown) [Example 127, 6′-[(4-Amino-1,3,5-triazin-2-yl)amino]-4-hydroxy-8′-methyl-4-(trifluoromethyl)-2′H-spiro[cyclohexane-1,3′-imidazo[1,5-a]pyridine]-1′,5′-dione]: the IC50 amounted to 71.2 nM.

Compound `Cc1cc(Nc2ncnc3c2ncn3CC(=O)O)c(=O)n2c1C(=O)NC21CCCCC1` [Example 48, {6-[(8′-Methyl-1′,5′-dioxo-1′,5′-dihydro-2′H-spiro[cyclohexane-1,3′-imidazo[1,5-a]pyridin]-6′-yl)amino]-9H-purin-9-yl}acetic acid] registered an IC50 of 29.4 nM.

Broadly, the IC50 is the concentration that gives 50% inhibition.
